PMC8286840, “Identifying SARS-CoV-2 antiviral compounds by screening for small molecule inhibitors of Nsp3 papain-like protease” (Biochemical Journal, 2021)
Counter-ions that a name gives are not always drawn. Like-named read-outs stand apart in the source and are kept apart here. Where no end group is shown, it is not given here.

Tests used:
[1] = molecular target: T1, SARS-CoV-2 PLpro (nsp3 1564–1878) (Severe acute respiratory syndrome coronavirus 2, UniProt P0DTD1); test: biochemical; design: FRET-quenched peptide (Pro3) cleavage by PLpro, 10 min pre-incubation, slope over 20 min, normalised to no-compound control; details: low concentration screen, read-out: % of control remaining
[2] = molecular target: T1, SARS-CoV-2 PLpro (nsp3 1564–1878); test: biochemical; design: FRET-quenched peptide (Pro3) cleavage by PLpro, 10 min pre-incubation, slope over 20 min, normalised to no-compound control; details: high concentration screen, read-out: % of control remaining

`C[C@]12CC[C@H](O)CC1=CC[C@@H]1[C@@H]2CC[C@]2(C)C(=O)CC[C@@H]12` [Dehydroepiandrosterone] gave a remaining activity at 1.25 µM ([1]; Well no.=1972) of 94.1% and a remaining activity at 3.75 µM ([2]; Well no.=1972) of 98.4%.

`O=C(O)COc1ccc(C(=O)c2cccs2)c(Cl)c1Cl` [Tienilic Acid] showed a remaining activity at 1.25 µM ([1]; Well no.=5851) of 105% and a remaining activity at 3.75 µM ([2]; Well no.=5851) of 102%.

In the case of `CC(C)(C)[C@]1(O)C[C@@H]2OC(=O)C[C@@]23C(=O)O[C@@H]2OC(=O)[C@H](O)[C@]213` [Bilobalide], the remaining activity at 1.25 µM ([1]; Well no.=3091) is reported as 105% and the remaining activity at 3.75 µM ([2]; Well no.=3091) is reported as 105%.

With `CCCNC(=O)NS(=O)(=O)c1ccc(Cl)cc1` [Chlorpropamide] the remaining activity at 1.25 µM ([1]; Well no.=331) was 96.9% and the remaining activity at 3.75 µM ([2]; Well no.=331) was 97.8%.

Compound `Cc1onc(-c2ccccc2)c1C(=O)N[C@@H]1C(=O)N2[C@@H]1SC(C)(C)[C@@H]2C(=O)O` [Oxacillin (sodium monohydrate)] has a remaining activity at 1.25 µM ([1]; Well no.=7552) of 99.7% and a remaining activity at 3.75 µM ([2]; Well no.=7552) of 97.5%.

In the case of `C[C@H](NC(=O)[C@@H](O)c1cc(F)cc(F)c1)C(=O)N[C@@H]1C(=O)N(C)c2ccccc2-c2ccccc21` [LY411575], the remaining activity at 1.25 µM ([1]; Well no.=4689) is reported as 102% and the remaining activity at 3.75 µM ([2]; Well no.=4689) is reported as 101%.

In the case of `CC(C)(Oc1ccc(CCNC(=O)c2ccc(Cl)cc2)cc1)C(=O)O` [Bezafibrate], the remaining activity at 1.25 µM ([1]; Well no.=1660) is reported as 98.3% and the remaining activity at 3.75 µM ([2]; Well no.=1660) is reported as 97.5%.

`O=C(CCCN1CC=C(n2c(=O)[nH]c3ccccc32)CC1)c1ccc(F)cc1` [Droperidol] showed a remaining activity at 1.25 µM ([1]; Well no.=493) of 105%, a remaining activity at 1.25 µM ([1]; Well no.=7382) of 97.2% and a remaining activity at 3.75 µM ([2]; Well no.=493) of 106%. For the same compound, the remaining activity at 3.75 µM ([2]; Well no.=7382) was 101%.

Work on `CCOc1nc2cccc(C(=O)OC(C)OC(=O)OC3CCCCC3)c2n1Cc1ccc(-c2ccccc2-c2nn[nH]n2)cc1` (centres unmarked) [Candesartan (Cilexetil)] yielded a remaining activity at 1.25 µM ([1]; Well no.=7673) of 95.7% and a remaining activity at 3.75 µM ([2]; Well no.=7673) of 92.5%.

In the case of `CCCCCCCCCCCCCCCC(=O)O[C@@H]1[C@@H](O)[C@@H](O)[C@@H]([C@H](NC(=O)[C@@H]2C[C@@H](CCC)CN2C)[C@H](C)Cl)O[C@@H]1SC` [Clindamycin palmitate.HCl], the remaining activity at 1.25 µM ([1]; Well no.=1864) is reported as 100% and the remaining activity at 3.75 µM ([2]; Well no.=1864) is reported as 102%.

Compound `Cc1cnc(Nc2ccc(N3CCN(C)CC3)cc2)nc1Nc1cccc(S(=O)(=O)NC(C)(C)C)c1` [TG101209] has a remaining activity at 1.25 µM ([1]; Well no.=2805) of 94% and a remaining activity at 3.75 µM ([2]; Well no.=2805) of 96.7%.

With `CCCCCCCCCCCCCCC[C@@H](O)[C@@H](N)CO` [Dihydrosphingosine] the remaining activity at 1.25 µM ([1]; Well no.=4399) was 101% and the remaining activity at 3.75 µM ([2]; Well no.=4399) was 96.6%.

`c1ccc2nc(N3CCNCC3)ccc2c1` [Quipazine dimaleate] showed a remaining activity at 1.25 µM ([1]; Well no.=1411) of 99.5% and a remaining activity at 3.75 µM ([2]; Well no.=1411) of 101%.

For Ac-LKKTETQ [TB500], the remaining activity at 1.25 µM ([1]; Well no.=7646) was 92.9% and the remaining activity at 3.75 µM ([2]; Well no.=7646) was 90.2%.

`Cc1nc(C(=O)N2CCC[C@H]2Cc2nnc(-c3ccccc3)o2)c(-c2ccccc2F)s1` [SB-674042] gave a remaining activity at 1.25 µM ([1]; Well no.=7083) of 102% and a remaining activity at 3.75 µM ([2]; Well no.=7083) of 98.9%.

Compound `Cc1ccc(Nc2nccc(N(C)c3ccc4c(C)n(C)nc4c3)n2)cc1S(N)(=O)=O` [Pazopanib HCl] has a remaining activity at 1.25 µM ([1]; Well no.=4613) of 110% and a remaining activity at 3.75 µM ([2]; Well no.=4613) of 107%.

Work on `CCCCCOc1ccccc1C(O)CC#CCCCC(=O)OC` (centres unmarked) [CAY10514] yielded a remaining activity at 1.25 µM ([1]; Well no.=4293) of 100% and a remaining activity at 3.75 µM ([2]; Well no.=4293) of 98.7%.

`CC(C)OC(=O)C(C)(C)Oc1ccc(C(=O)c2ccc(Cl)cc2)cc1` [Fenofibrate] gave a remaining activity at 1.25 µM ([1]; Well no.=421) of 97.6%, a remaining activity at 1.25 µM ([1]; Well no.=2084) of 99.9% and a remaining activity at 3.75 µM ([2]; Well no.=421) of 101%. For the same compound, the remaining activity at 3.75 µM ([2]; Well no.=2084) was 102%.

With `O=c1[nH]c2ccccc2c2ccccc12` [6(5H)-Phenanthridinone] the remaining activity at 1.25 µM ([1]; Well no.=1305) was 104% and the remaining activity at 3.75 µM ([2]; Well no.=1305) was 107%.

Work on `C[C@]12CCC(=O)C=C1C=C[C@@H]1[C@@H]2CC[C@@]2(C)[C@H]1CC[C@@]21CCC(=O)O1` [Canrenone] yielded a remaining activity at 1.25 µM ([1]; Well no.=2181) of 93.5% and a remaining activity at 3.75 µM ([2]; Well no.=2181) of 98%.

Work on `CCCCCCCCCCCCCCCCC(=O)O` [Heptadecanoic acid] yielded a remaining activity at 1.25 µM ([1]; Well no.=4308) of 106% and a remaining activity at 3.75 µM ([2]; Well no.=4308) of 101%.

Compound `Cc1cc(C(C)(C)C)cc(C)c1CC1=NCCN1` [Xylometazoline (hydrochloride)] has a remaining activity at 1.25 µM ([1]; Well no.=6281) of 106% and a remaining activity at 3.75 µM ([2]; Well no.=6281) of 106%.

In the case of `CC(C)N(CCC(C(N)=O)(c1ccccc1)c1ccccn1)C(C)C` (centres unmarked) [Disopyramide phosphate salt], the remaining activity at 1.25 µM ([1]; Well no.=5508) is reported as 105% and the remaining activity at 3.75 µM ([2]; Well no.=5508) is reported as 103%.

For `Cc1ccc(C(=O)Nc2cccc(C(F)(F)F)c2)cc1Nc1nc(-c2cccnc2)nc2c1cnn2C` [NVP-BHG712], the remaining activity at 1.25 µM ([1]; Well no.=4820) was 100% and the remaining activity at 3.75 µM ([2]; Well no.=4820) was 96.9%.

With `C[C@@]1(F)[C@H](O)[C@@H](CO)O[C@H]1n1ccc(=O)[nH]c1=O` [PSI-6206] the remaining activity at 1.25 µM ([1]; Well no.=7710) was 92.6% and the remaining activity at 3.75 µM ([2]; Well no.=7710) was 87.5%.

`Cc1cccc(Cc2c[nH]cn2)c1C` [Detomidine (hydrochloride)] was tested, and the remaining activity at 1.25 µM ([1]; Well no.=6662) was 98.9% and the remaining activity at 3.75 µM ([2]; Well no.=6662) was 102%.

Compound `NCCC(O)(P(=O)(O)O)P(=O)(O)O` [Pamidronate Disodium] has a remaining activity at 1.25 µM ([1]; Well no.=4773) of 96.6% and a remaining activity at 3.75 µM ([2]; Well no.=4773) of 97.3%.

With `COc1cc(=O)oc(/C=C/C=C/C=C/C(C)=C/[C@]2(C)O[C@H](C)[C@](C)(O)[C@H]2O)c1C` [Citreoviridin] the remaining activity at 1.25 µM ([1]; Well no.=3391) was 92.8% and the remaining activity at 3.75 µM ([2]; Well no.=3391) was 96.6%.

Work on `CN(C)[C@@H]1CCc2[nH]c3ccc(NC(=O)c4ccc(F)cc4)cc3c2C1` [LY 344864] yielded a remaining activity at 1.25 µM ([1]; Well no.=7289) of 93.4% and a remaining activity at 3.75 µM ([2]; Well no.=7289) of 91.2%.

For `CN(C)C(=O)Oc1cc(OC(=O)N(C)C)cc(C(O)CNC(C)(C)C)c1` (centres unmarked) [5-(2-(tert-butylamino)-1-hydroxyethyl)-1,3-phenylene bis(dimethylcarbamate) hydrochloride], the remaining activity at 1.25 µM ([1]; Well no.=5871) was 104% and the remaining activity at 3.75 µM ([2]; Well no.=5871) was 103%.

`NC(=O)NC1NC(=O)NC1=O` (centres unmarked) [Allantoin] showed a remaining activity at 1.25 µM ([1]; Well no.=6631) of 104%, a remaining activity at 1.25 µM ([1]; Well no.=8145) of 106% and a remaining activity at 3.75 µM ([2]; Well no.=6631) of 106%. For the same compound, the remaining activity at 3.75 µM ([2]; Well no.=8145) was 97.6%.

Compound `CCC1(c2c[nH]cn2)Cc2ccccc2C1` [Atipamezole (hydrochloride)] has a remaining activity at 1.25 µM ([1]; Well no.=7481) of 102% and a remaining activity at 3.75 µM ([2]; Well no.=7481) of 98.7%.

Compound `CCC1(c2c[nH]cn2)Cc2ccccc2C1` [Atipamezole] has a remaining activity at 1.25 µM ([1]; Well no.=6663) of 101% and a remaining activity at 3.75 µM ([2]; Well no.=6663) of 101%.

`CC(C)(N)C(=O)O` [NSC 16590] showed a remaining activity at 1.25 µM ([1]; Well no.=7781) of 103% and a remaining activity at 3.75 µM ([2]; Well no.=7781) of 108%.
